“Also recorded” adds a separate entry of the source.
Experiments:
cathepsin B = molecular target: T1, cathepsin B (Homo sapiens, UniProt P07858); assay: Inhibition of peptide library cleavages characterized by MSP-MS; assay type: biochemical; conditions: 64 nM inhibitor
T1 construct: purchased R&D Systems 953-CY-010
Description: Cathepsin B cleavage site analysis by multiplex substrate profiling by mass spectrometry (MSP-MS). Cathepsin B activity (activated) was titrated with E64c to calculate the concentration of active cathepsin B. For MSP-MS assays, cathepsin B (0.1 ng/μL, activated) was incubated with a peptide library of 228 14-mer peptides, each at 0.5 μM peptide, in buffer consisting of 50 mM citrate phosphate of pH 7.2 or pH 4.6, 1 mM EDTA, 100 mM NaCl and 4 mM DTT (total volume of 46 μL). After incubation for […] at 25° C., 20 μL aliquots were removed and combined with 80 μL of 8 M urea. An inactivated cathepsin B control consisted of cathepsin B in assay buffer combined with 8 M urea for 60 minutes at 25° C. for denaturation, followed by addition of the peptide library. After incubation, samples were acidified by addition of 40 μL of 2% FA, desalted using C18 LTS Tips (Rainin), evaporated to dryness in a vacuum centrifuge, and stored at −70° C. Samples were resuspended in 20 μL of 0.1% FA (solvent A) and 1 μL was used for LC-MS/MS analysis. All MSP-MS conditions were conducted in quadruplicate assays.
Inhibitor inhibition of peptide cleavages characterized by MSP-MS. […]

[1] = molecular target: T2, cathepsin B in SHSY5Y human neuroblastoma cell homogenate (Homo sapiens, UniProt P07858); assay: Cathepsin B activity in neuroblastoma cell homogenates in presence of inhibitors; assay type: biochemical; conditions: inhibitor 1 μM, Z-Arg-Arg-AMC substrate, pH 5.5
T2 construct: endogenous in cells; host or cells: SH-SY5Y human neuroblastoma cells
Description: Cathepsin B in human neuroblastoma cells treated with inhibitors. Neuroblastoma cells (human SHSY5Y) were grown in media consisting of 50% MEMalpha, 50% F12-K, 10% heat-inactivated FBS at 37° C. in an atmosphere of 95% air and 5% CO2. Firstly, cell homogenates were prepared by collection of cells in 0.32 M sucrose and freeze-thawing. Secondly, cells were incubated with Z-Arg-Lys-AOMK or CA-074Me for 6 hours at 37° C., and washed 3 times in phosphate-buffered saline and homogenates were prepared in 0.32 M sucrose with freeze-thawing. CA-074Me is a methyl ester form of the active CA-074 selective inhibitor of cathepsin B (70); CA-074Me penetrates the cell and is converted by intracellular esterases to CA-074.
Cathepsin B activity in the homogenates were monitored with Z-Arg-Arg-AMC substrate (60 μM) with buffer conditions of 40 mM citrate-phosphate, pH 5.5, 5 mM DTT, 1 mM EDTA, 100 mM NaCl, and 1.2% DMSO, followed by incubation at 37° C. for 30 minutes and reading of AMC fluorescence. CA-074-senstive activity was monitored to indicate cathepsin B activity, since CA-074 is a selective inhibitor of this enzyme (70). Protein content was measured in homogenates with the DC protein assay kit. Cathepsin B specific activity was calculated as nmol AMC/μg/min, and reported as the mean±SD (with analyses for statistical significance, p<0.05 by student's t-test).

inhibition of proteolytic (cathepsin B) activity in cell lysate [1]: completely inhibited
Compound: Cc1cccc(C)c1C(=O)OCC(=O)C(CCCCN)NC(=O)C(CCCNC(=N)N)NC(=O)OCc1ccccc1 (stereo not drawn) [Z-Arg-Lys-AOMK]
inhibition of cathepsin B cleavage of peptide library substrates (cathepsin B; pH 4.6): does not inhibit; also recorded: did not inhibit
inhibition of cathepsin B cleavage of peptide library substrates (cathepsin B; pH 7.2, 1 hr incubation): inhibits; also recorded: completely inhibited

From patent publication US20240181068A1, “SELECTIVE NEUTRAL PH INHIBITOR OF CATHEPSIN B” (The Regents of the University of California, priority 2021, published 2024)
